# Activity calls are given as the source filed them.
# Assays:
# [1] = biological target: T1, Corticotropin-releasing factor receptor 2/Corticotropin-releasing factor-binding protein (Homo sapiens, UniProt P24387+Q13324); experiment: activators of CRF receptor 2 with binding protein – uHTS hits, confirmation (AID 602473); type: functional; conditions: read-out: EC50_Mean
# T1 sequence (Q13324 whole entry): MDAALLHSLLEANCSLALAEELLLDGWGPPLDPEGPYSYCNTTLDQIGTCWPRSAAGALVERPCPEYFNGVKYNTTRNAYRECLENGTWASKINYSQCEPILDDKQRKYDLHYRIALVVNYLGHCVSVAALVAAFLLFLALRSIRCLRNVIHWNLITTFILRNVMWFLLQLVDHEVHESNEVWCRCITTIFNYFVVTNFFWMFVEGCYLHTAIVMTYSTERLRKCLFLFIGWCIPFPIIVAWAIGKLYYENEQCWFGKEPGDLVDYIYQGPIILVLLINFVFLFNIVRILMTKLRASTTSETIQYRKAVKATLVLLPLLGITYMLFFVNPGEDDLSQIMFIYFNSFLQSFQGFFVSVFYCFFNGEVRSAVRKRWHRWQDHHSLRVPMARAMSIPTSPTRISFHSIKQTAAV
# T1 sequence (P24387 whole entry): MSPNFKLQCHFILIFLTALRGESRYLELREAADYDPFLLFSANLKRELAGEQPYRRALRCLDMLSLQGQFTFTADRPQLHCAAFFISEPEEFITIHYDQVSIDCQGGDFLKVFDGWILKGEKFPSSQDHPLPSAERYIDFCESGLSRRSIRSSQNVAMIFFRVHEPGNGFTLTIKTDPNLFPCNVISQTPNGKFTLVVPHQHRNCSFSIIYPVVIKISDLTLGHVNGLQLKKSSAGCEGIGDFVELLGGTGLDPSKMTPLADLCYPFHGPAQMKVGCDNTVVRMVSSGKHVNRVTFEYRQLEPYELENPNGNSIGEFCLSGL
# [2] = biological target: T2, DNA repair and recombination protein RAD54-like (Homo sapiens, UniProt Q92698); experiment: inhibitors of human RAD54 branch migration, confirmation, biochemical, fluorescence, cherry-picked samples, dose series (AID 651657); type: functional
# T2 sequence (Q92698 whole entry): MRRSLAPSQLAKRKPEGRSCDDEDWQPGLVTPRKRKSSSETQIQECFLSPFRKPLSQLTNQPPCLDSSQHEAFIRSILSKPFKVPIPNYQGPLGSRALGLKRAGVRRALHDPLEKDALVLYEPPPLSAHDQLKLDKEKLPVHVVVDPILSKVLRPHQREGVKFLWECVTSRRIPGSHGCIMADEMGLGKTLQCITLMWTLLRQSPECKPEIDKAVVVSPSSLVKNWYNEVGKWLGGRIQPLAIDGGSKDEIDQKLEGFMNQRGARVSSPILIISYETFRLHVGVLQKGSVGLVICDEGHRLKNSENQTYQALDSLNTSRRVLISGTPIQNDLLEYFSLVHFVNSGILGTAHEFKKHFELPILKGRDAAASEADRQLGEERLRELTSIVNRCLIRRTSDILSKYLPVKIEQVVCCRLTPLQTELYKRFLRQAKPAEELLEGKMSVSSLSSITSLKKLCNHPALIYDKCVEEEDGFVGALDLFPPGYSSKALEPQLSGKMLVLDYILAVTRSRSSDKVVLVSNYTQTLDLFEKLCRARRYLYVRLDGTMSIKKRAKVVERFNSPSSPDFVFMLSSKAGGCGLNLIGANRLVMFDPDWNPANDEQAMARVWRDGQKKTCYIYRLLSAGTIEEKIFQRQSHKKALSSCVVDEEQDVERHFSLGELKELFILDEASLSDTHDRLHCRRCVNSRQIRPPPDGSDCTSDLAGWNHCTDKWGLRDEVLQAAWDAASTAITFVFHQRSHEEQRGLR
# [3] = biological target: T3, Ubiquitin-conjugating enzyme E2 N (Homo sapiens, UniProt P61088); type: functional;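 also: Dose-response confirmation in a TR-FRET assay detecting UBC13-driven polyubiquitin chain formation, inhibition measured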
# T3 sequence (P61088 whole entry): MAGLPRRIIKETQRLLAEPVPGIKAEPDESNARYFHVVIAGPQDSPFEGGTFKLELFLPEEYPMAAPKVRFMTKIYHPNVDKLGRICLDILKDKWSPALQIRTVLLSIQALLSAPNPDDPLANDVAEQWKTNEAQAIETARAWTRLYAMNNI
# [4] = biological target: T4, Endoribonuclease toxin MazF (Escherichia coli K-12, UniProt P0AE70); experiment: MazF toxin RNase activators, dose response, biochemical, fluorescence, single-stranded RNA substrate, uHTS hits (AID 588481); type: functional
# T4 sequence (P0AE70 whole entry): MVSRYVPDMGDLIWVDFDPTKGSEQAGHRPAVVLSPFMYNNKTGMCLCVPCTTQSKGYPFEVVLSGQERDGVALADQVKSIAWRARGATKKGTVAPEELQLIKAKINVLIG
# [5] = biological target: T4, Endoribonuclease toxin MazF; experiment: fluorescent RNA oligo signal without MazF, dose response, counter-screen for MazEF activator project, biochemical, fluorescence, single-stranded RNase substrate (AID 588502); type: functional
# [6] = biological target: DNA dC->dU-editing enzyme APOBEC-3G (Homo sapiens, UniProt Q9HC16); experiment: Dose Response confirmation of small molecule APOBEC3G DNA Deaminase Inhibitors via a fluorescence-based single-stranded DNA deaminase assay. [Related pubchem assays (depositor defined):AID493012, AID493028]; type: functional
# cells [7] = type: functional, cell-based
# cells [8] = type: functional, cell-based; remark: listed apart in the source
# H9c2 = experiment: cells; type: functional, cell-based; conditions: Rattus norvegicus, H9c2, Myocardium;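 also: confirmatory concentration-response retest of ultra-high-throughput screening hits for modulation of myocardial damage; cell death induced by hydrogen peroxide oxidative stress; compound pretreatment for 60 min then peroxide exposure for 2 h; potency is for protecting the cells against peroxide damage rather than for killing them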
# [9] = inhibitors of HIV Env-driven cell fusion, dose response, cherry-pick (AID 652057); type: functional, cell-based
# [10] = ZM109 Env clade C HIV-1 fusion inhibitors, dose response, HeLa effector, CEM target cells, luciferase, cherry-pick (AID 652058); type: functional, cell-based
# [11] = off-target signal loss in HeLa-CEM21 co-culture – HeLa F-luc CTL cells, cherry-picked, counter-screen for HIV-1 Env fusion inhibitor project, dose response (AID 652040); type: functional, cell-based;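 also: potency for signal decrease marking cytotoxic or nonspecific inhibition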
# [12] = inhibitors of clade B AD8 Env fusion, dose response, cell-based, cherry-pick (AID 652062); type: functional;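 also: luciferase signal from cell-cell fusion driven by HIV-1 clade B AD8 Env; potency is for inhibitors of fusion seen as a drop in luminescence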
# Leucine aminopeptidase = biological target: T5, Leucine aminopeptidase (Plasmodium falciparum 3D7, UniProt Q8IL11); experiment: P. falciparum M17LAP inhibitors, primary screen, biochemical, fluorogenic H-Leu-NHMec substrate, 1536-well (AID 1619); type: functional
# T5 sequence (Q8IL11 whole entry): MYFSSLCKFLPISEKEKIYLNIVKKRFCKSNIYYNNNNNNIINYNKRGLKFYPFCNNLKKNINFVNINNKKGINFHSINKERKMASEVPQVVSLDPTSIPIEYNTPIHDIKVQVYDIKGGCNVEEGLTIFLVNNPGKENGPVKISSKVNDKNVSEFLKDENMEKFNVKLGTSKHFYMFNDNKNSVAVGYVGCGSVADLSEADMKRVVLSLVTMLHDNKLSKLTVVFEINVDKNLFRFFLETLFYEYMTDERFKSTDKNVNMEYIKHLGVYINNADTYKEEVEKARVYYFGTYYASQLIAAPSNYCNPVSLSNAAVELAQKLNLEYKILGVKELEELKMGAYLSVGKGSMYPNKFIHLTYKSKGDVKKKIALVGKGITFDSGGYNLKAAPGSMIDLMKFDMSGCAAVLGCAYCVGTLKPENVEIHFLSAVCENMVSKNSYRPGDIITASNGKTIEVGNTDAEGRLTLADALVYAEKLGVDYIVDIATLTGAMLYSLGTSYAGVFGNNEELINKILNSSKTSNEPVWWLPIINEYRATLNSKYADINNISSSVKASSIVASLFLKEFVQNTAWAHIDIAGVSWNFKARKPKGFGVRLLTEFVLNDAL
# [13] = biological target: Heat shock protein HSP 90-alpha (Homo sapiens, UniProt P07900); type: functional, organism-based
# [14] = inhibitors of intracellular T. cruzi replication, confirmation, NIH3T3 host cells, beta-gal luminescence (AID 2044); type: functional, cell-based;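 also: intracellular parasites grown in NIH/3T3 mouse fibroblasts as host cells; luminescent beta-galactosidase reporter signal from transgenic T. cruzi replicating inside host cells; inhibitors lower the luminescence signal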
# [15] = cytotoxicity toward NIH3T3 fibroblasts, dose response, counter-screen, cell-based, ATP luminescence, mouse fibroblasts (AID 2010); type: functional;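 also: cells exposed to compound for about 90 hours before reading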
# [16] = THP-1 cell cytotoxicity, dose response, cytotoxicity control for non-replicating M. tuberculosis project (AID 489025); type: functional
# cells [17] = type: functional
# [18] = biological target: T6, DNA repair protein RAD52 homolog (Homo sapiens, UniProt P43351); type: functional, biochemical
# T6 sequence (P43351 whole entry): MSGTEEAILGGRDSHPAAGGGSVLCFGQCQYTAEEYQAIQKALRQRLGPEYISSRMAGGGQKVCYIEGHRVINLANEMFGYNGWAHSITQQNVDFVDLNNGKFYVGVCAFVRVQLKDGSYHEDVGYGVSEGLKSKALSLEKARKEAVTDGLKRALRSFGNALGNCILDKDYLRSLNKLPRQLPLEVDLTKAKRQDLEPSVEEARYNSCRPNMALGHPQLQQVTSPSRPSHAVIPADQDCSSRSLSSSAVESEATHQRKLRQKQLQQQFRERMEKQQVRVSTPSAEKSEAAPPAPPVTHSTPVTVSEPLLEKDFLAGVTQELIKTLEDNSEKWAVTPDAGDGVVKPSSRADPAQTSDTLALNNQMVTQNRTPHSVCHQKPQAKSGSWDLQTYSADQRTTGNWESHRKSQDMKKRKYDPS
# Chain of DNA dC->dU-editing enzyme APOBEC-3G (Q9HC16 whole entry): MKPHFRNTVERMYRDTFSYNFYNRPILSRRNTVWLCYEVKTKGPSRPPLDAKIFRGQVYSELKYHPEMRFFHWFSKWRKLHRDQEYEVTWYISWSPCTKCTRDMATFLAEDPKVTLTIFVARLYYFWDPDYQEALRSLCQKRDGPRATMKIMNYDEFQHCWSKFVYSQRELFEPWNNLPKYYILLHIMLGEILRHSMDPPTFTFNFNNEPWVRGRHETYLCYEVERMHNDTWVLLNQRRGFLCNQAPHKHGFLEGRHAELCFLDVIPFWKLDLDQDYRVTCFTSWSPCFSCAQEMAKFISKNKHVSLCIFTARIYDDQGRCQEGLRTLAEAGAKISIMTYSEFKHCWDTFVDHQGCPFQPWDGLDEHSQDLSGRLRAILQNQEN
structure (smiles),measurement,setting,value
COC(=O)c1c(NC(=O)c2ccco2)sc2c1CCN(C(C)C)C2,EC50,[1],> 53 µM (inactive)
same,AC50,[2],25.4 µM (active)
Cc1ccc(C(=O)N/C(=C/c2ccc(-c3cccc([N+](=O)[O-])c3)o2)C(=O)NCCCN(C)C)cc1,IC50,[3],> 20 µM (inactive)
Cc1c(C(=O)Nc2ccc3c(c2)OCO3)sc2nc(-c3ccccc3)cn12,EC50,[4],> 99 µM (inactive)
same,EC50,[5],> 99 µM (inactive)
COc1ccccc1NS(=O)(=O)c1cc(NC(=O)c2cccs2)ccc1N1CCCC1,IC50,[6],37.1 µM (active)
CN(C)C(CNC(=O)CCCN1C(=O)c2cccc3cccc(c23)C1=O)c1ccccc1 (configuration not stated),AC50,[2],43.4 µM (active)
C=CCn1c(S)nnc1-c1ccc2ncccc2c1,IC50,[6],11.9 µM (active)
CCOc1ccc2nc(NC(=S)N(C)C)sc2c1,IC50,[6],62.4 µM (active)
Cc1cc2ccc3ccccc3c2cc1CN(C)C,EC50,cells [7],> 350 µM (not active)
same,EC50,cells [8],> 350 µM (not active)
same,AC50,[2],38.3 µM (active)
COc1ccc(-c2cc(=O)oc3c(C)c(O)c(CN(C)C)cc23)cc1,IC50,H9c2,> 79 µM (inactive)
same,AC50,[9],13 µM (active)
same,AC50,[10],18.1 µM (active)
same,AC50,[11],7.97 µM (active)
same,AC50,[12],17.4 µM (active)
Cc1ccccc1C(=O)NCC(=O)NNC(=S)NC(=O)c1ccccc1,IC50,Leucine aminopeptidase,47.4 µM (active)
same,IC50,[3],> 20 µM (inactive)
CCOC(=O)c1ccc(N2C(=O)CC(N3CCC(C(=O)OCC)CC3)C2=O)cc1 (configuration not stated),AC50,[13],7.24 µM (active)
Sc1nc2ccccc2c2nc(-c3cccnc3)nn12,IC50,[3],> 20 µM (inactive)
CCC(CC)COC(=O)C(C#N)c1nc2ccccc2nc1N1CCN(CC)CC1 (configuration not stated),EC50,[14],4.05 µM (active)
same,EC50,[15],> 60 µM (not active)
same,CC50,[16],26.2 µM (active)
same,IC50,cells [17],17.9 µM (active)
COC(=O)C1=C(c2ccc(F)cc2OCc2ccccc2)C[C@@H]2CC[C@H]1N2C(=O)NC1CCN(Cc2ccccc2)CC1,IC50,[3],> 20 µM (inactive)
C[C@@H](CN1CCC[C@H]1CN1C(N)=NC[C@@H]1Cc1ccccc1)N1C[C@@H](Cc2ccccc2)N(CCCC2CCCC2)C1=N,IC50,[3],> 20 µM (inactive)
COC(=O)[C@@]1(C)[C@H]2C(=O)N(Cc3ccccc3)C(=O)[C@H]2[C@H]2CN=C(SCC3CC3)N21,AC50,[9],2.13 µM (active)
same,AC50,[10],2.3 µM (active)
same,AC50,[11],2.95 µM (active)
same,AC50,[12],7.31 µM (active)
CC(=O)Nc1cccc(NC(=N)Nc2nc(C)cc(C)n2)c1,AC50,[18],18.8 µM (active)
COc1cc(C(=O)NC2CCN(C)CC2)ccc1Nc1ncc2c(n1)N(CCc1ccccc1)CCC(=O)N2C,AC50,[18],8.71 µM (active)
Cn1cc(Cl)c(C(=O)N/N=C/c2ccc3c4c(cccc24)CC3)n1,EC50,[4],> 99 µM (inactive)
same,EC50,[5],> 99 µM (inactive)
CC1(C(=O)N/N=C/c2ccc3c(c2)OCO3)CC1(Br)Br (configuration not stated),AC50,[9],5.4 µM (active)
same,AC50,[10],4.12 µM (active)
same,AC50,[11],7.57 µM (active)
same,AC50,[12],7.47 µM (active)
C[C@]12CC[C@H](OC(=O)[C@@H](N)CCCCN)C[C@@H]1CC[C@@H]1[C@@H]2CC[C@@]2(C)[C@H]1CC[C@]2(C)O,AC50,[18],1.93 µM (active)
CN1CCc2c(sc(N)c2C(=O)O)C1,AC50,[18],11.7 µM (active)
CC(C)=CCc1c2c(c3occ(-c4ccc(O)c(O)c4)c(=O)c3c1O)C=CC(C)(C)O2 [POMIFERIN],AC50,[13],13.3 µM (active)

# — ChEMBL document CHEMBL1201862, “PubChem BioAssay data set” (2004)
